Experimental data published in US20180105548A1, “A novel compound (KS-513) isolated from Pseudolysimachion rotundum var. subintegrum, the composition comprising the same preventing or treating allergic disease, inflammatory disease, asthma or chronic obstructive pulmonary disease and the use thereof” (priority 2015, published 2018).

Test system: NO
Experiment: NO production in LPS-treated RAW264.7 cell (Griess Reagent)
Type: cell-based, mouse
Conditions: for NO production (relative % comparing with LPS treatment group) / NO production, Inhibitory ratio (%): LPS 1 μg/mL, 24 hours
Description: In order to determine the amount of NO reproduction in medium, following test was performed according to the method disclosed in the literature (Ding, A. H., et al., 1988, Release of reactive nitrogen intermediates and reactive oxygen intermediates from mouse peritoneal macrophages, Comparison of activating cytokines and evidence for independent production, Journal of Immunology, 141, pp 2407-2412).
RAW264.7 cell was inoculated into 96 well plates in the concentration of 1×10^5 cell/well to incubate for 18 hours. Various concentration of KS-513 compound (2.5, 5, 10 and 20 μM) was pre-treated therewith and 1 μg/mL of LPS (L6529, Sigma) was added thereto to incubate for 24 hours. The equivalent amount of Griess Reagent (G4410, Sigma) to the medium was added thereto and reacted at room temperature for 10 mins to determine the absorbance at 540 nm. The level of NO in the medium was determined using by standard curve expressed according to various concentration of sodium nitrite and the result was shown in Table 5 and FIG. 3.

Q: Which “NO production (relative % comparing with LPS treatment group)” value (2.5 μM) does the source give for `CO[C@@H]1C[C@H]2[C@H](OC(=O)c3ccc(O)cc3)[C@@H]3O[C@]3(CO)[C@H]2[C@H](O[C@@H]2O[C@H](CO)[C@@H](O)C(O)[C@H]2O)O1` (stereo partly drawn) [KS-513, (1aS, 1bS,2S,4S,5aR,6S,6aS)-1a-(hydroxymethyl)-4-methoxy-2-(((2S,3R,5S,6R)-3,4,5-trihydroxy-6-(hydroxymethyl)tetrahydro-2H-pyran-2-yl)oxy)octahydrooxireno[2′,3′:4,5]cyclopenta[1,2-c]pyran-6-yl 4-hydroxybenzoate] here?
A: 91.89 ± 4.24%

Q: And the “NO production, Inhibitory ratio (%)” value (2.5 μM)?
A: 8.21%

Q: What about the “NO production (relative % comparing with LPS treatment group)” value (5 μM) of the same molecule?
A: 83.69 ± 3.79%

Q: What about the “NO production, Inhibitory ratio (%)” value (5 μM) of the same molecule?
A: 16.41%

Q: And the “NO production (relative % comparing with LPS treatment group)” value (10 μM)?
A: 80.06 ± 2.68%

Q: What about the “NO production, Inhibitory ratio (%)” value (10 μM) of the same molecule?
A: 20.04%

Q: And the “NO production (relative % comparing with LPS treatment group)” value (20 μM)?
A: 72.16 ± 3.57%

Q: And the “NO production, Inhibitory ratio (%)” value (20 μM)?
A: 27.94%

Q: And the “reproduced level of NO” value (based on LPS treatment (100%))?
A: reduced in a dose dependent manner
